According to PMC8463504 (Journal of inorganic biochemistry, 2021):
Like-named read-outs stand apart in the source and are kept apart here.

Tests used:
HbII [1] = biological target: T1, HbII (Phacoides pectinatus, UniProt P41261); conditions: read-out: Equilibrium dissociation constant (Kd), pH 7.5; cited from earlier work
T1 sequence (P41261 1-151): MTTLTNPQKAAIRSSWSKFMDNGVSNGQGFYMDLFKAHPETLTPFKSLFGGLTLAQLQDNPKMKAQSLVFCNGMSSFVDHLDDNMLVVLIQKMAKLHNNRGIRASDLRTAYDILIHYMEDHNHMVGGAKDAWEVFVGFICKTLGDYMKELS

HHMb = conditions: read-out: Equilibrium dissociation constant (Kd), pH 7.5; cited from earlier work
HbI [2] = biological target: T2, HbI (Phacoides pectinatus, UniProt P41260); conditions: read-out: Equilibrium dissociation constant (Kd), pH 7.5; cited from earlier work
T2 sequence (P41260 whole entry): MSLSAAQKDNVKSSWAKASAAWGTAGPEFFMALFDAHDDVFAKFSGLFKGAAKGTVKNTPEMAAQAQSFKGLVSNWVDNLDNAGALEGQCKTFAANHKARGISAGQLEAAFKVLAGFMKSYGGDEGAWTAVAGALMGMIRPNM

HbIII [3] = biological target: T3, HbIII (Phacoides pectinatus, UniProt P41262); conditions: read-out: Equilibrium dissociation constant (Kd), pH 7.5; cited from earlier work
T3 sequence (P41262 1-153): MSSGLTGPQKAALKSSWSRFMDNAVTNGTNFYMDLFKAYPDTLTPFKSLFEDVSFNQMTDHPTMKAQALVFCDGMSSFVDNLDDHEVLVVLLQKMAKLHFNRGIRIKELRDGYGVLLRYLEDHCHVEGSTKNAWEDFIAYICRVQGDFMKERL

[4] = format: physicochemical; conditions: for % folded protein: below pH 4.4; for pKa of acid denaturation: sigmoidal-Boltzmann fit of % folded protein vs pH
HbI [5] = biological target: T2, HbI; conditions: cited from earlier work
HbII [6] = biological target: T1, HbII; conditions: read-out: Equilibrium dissociation constant (Kd), pH 7.5; cited from earlier work; remark: listed apart in the source
HbIII [7] = biological target: T3, HbIII; conditions: read-out: Equilibrium dissociation constant (Kd), pH 7.5; cited from earlier work; remark: listed apart in the source
[8] = cited from earlier work
His64 = experiment: other; conditions: ferric heme-bound fluoride complex; cited from earlier work
HbI [9] = biological target: T2, HbI; experiment: biochemical; conditions: Measured fluoride binding dissociation constant (Kd), pH 5.0
[10] = biological target: horse heart myoglobin (Mb) (Equus caballus, UniProt P68082); experiment: biochemical
Chain of horse heart myoglobin (Mb) (P68082 whole entry): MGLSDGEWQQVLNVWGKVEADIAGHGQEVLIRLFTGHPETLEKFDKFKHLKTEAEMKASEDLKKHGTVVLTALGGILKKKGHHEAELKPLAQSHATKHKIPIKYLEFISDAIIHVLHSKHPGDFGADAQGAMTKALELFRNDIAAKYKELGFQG

HbIII [11] = biological target: T3, HbIII; experiment: biochemical
adult hemoglobin (A-Hb) = adult hemoglobin (A-Hb) (Homo sapiens, UniProt P68871+P69905); experiment: biochemical; conditions: Measured fluoride binding dissociation constant (Kd)
Chain of adult hemoglobin (A-Hb) (P69905 2-142 limits assumed): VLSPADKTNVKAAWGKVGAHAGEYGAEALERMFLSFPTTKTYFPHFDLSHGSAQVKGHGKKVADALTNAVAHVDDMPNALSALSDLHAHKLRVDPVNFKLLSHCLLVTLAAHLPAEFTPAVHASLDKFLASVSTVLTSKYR
Chain of adult hemoglobin (A-Hb) (P68871 2-147 limits assumed): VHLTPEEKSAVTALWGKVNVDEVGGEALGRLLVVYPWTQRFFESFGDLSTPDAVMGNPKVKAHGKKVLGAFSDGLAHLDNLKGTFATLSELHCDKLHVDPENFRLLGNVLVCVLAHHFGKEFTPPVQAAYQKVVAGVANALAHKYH

HbII [12] = biological target: T1, HbII; experiment: biochemical
HbI [13] = biological target: T2, HbI; conditions: pH 4 to 7 range
[14] = Equilibrium dissociation constant (Kd), pH 7.5
[15] = Measured fluoride binding dissociation constant (Kd), pH 5.0
[16] = Measured fluoride binding dissociation constant (Kd), pH 7.0

For O=O [O2, oxygen], the Kd (HbII [1]) is given as 0.28 µM, the Kd (HHMb) is given as 1.3 µM and the Kd (HbI [2]) is given as ~0.4 µM. The Kd (HbIII [3]) was 0.26 µM.

In the case of “A-Hb: Adult hemoglobin purchased from Sigma-Aldrich”, the “% folded protein” value [4] is reported as “less than 50%” and the “pKa of acid denaturation” value [4] is reported as 4.4.

In the case of S [H2S, Hydrogen sulfide], the “Affinity of HbI for H2S relative to HbII and HbIII” value (HbI [5]; HbI greater than HbII and HbIII) is given as 4,000 times, the Kd (HbI [5]; read-out: Equilibrium dissociation constant (Kd), HbI, pH 7.5) is given as 0.0034 µM and the Kd (HbII [6]) is given as 14.5 µM. For the same molecule, the Kd (HbIII [7]) was > 16 µM and the “pKa (H2S/HS^− equilibrium)” value [8] was 7.0.

In the case of “Myoglobin (quoted literature values; species not stated in this article)”, the pKa (His64) is listed as 5.3–5.7.

In the case of F [fluoride, sodium fluoride], the Kd (HbI [9]) is reported as 100000 ± 61000 µM, the Kd ([10]; Equilibrium dissociation constant (Kd), HHMb, pH 7.5) is reported as 41000 µM and the Kd ([10]; Measured fluoride binding dissociation constant (Kd), Mb, pH 5.0) is reported as 3000 ± 820 µM. The Kd ([10]; Measured fluoride binding dissociation constant (Kd), Mb, pH 7.0) was 25000 ± 2800 µM, the Kd (HbIII [11]; Apparent Kd from non-linear fit, above pH 12) was 4000 µM and the Kd (HbIII [11]; [14]) was 2900 µM. The Kd (HbIII [11]; [15]) was 500 ± 332 µM, the Kd (HbIII [11]; [16]) was 3100 ± 370 µM and the Kd (adult hemoglobin (A-Hb); pH 5.0) was 9300 ± 5800 µM. It also gave a Kd (adult hemoglobin (A-Hb); pH 7.0) of 33000 ± 4000 µM, a Kd (HbII [12]; [14]) of 3700 µM and a Kd (HbII [12]; [15]) of 330 ± 67 µM. For the same molecule, the Kd (HbII [12]; [16]) was 1000 ± 156 µM and the “Fluoride affinity in HbI, lower than the other studied heme proteins” value (HbI [13]) was “about two orders of magnitude”.

B1: Mb: horse heart (methods: horse skeletal muscle) myoglobin purchased from Sigma-Aldrich (protein, UniProt P68082 2-154, looked up)
Myoglobin: GLSDGEWQQVLNVWGKVEADIAGHGQEVLIRLFTGHPETLEKFDKFKHLKTEAEMKASEDLKKHGTVVLTALGGILKKKGHHEAELKPLAQSHATKHKIPIKYLEFISDAIIHVLHSKHPGDFGADAQGAMTKALELFRNDIAAKYKELGFQG
For B1, the “% folded protein” value [4] was “less than 50%” and the “pKa of acid denaturation” value [4] was 4.4.
